Where “and” joins values, the source holds several entries; their conditions need not be identical. Identical values can stand only once. Toxic doses and inconclusive results are not listed. Cut-off read from the data, not from the text of the source: active = T/C of 150% or more; inactive = T/C below 125%.
Tested on: L1210 leukemia ip in BDF1 mice, survival T/C
Assay: NCI In Vivo Anticancer Drug Screen. Data for tumor model L1210 Leukemia (intraperitoneal) in B6D2F1 (BDF1) mice
Conditions: endpoint: mean survival time, higher = longer survival
Method in brief: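 Antitumor effect is assessed in tumor-bearing animals. Survival in the compound arm is compared with a vehicle-dosed control arm and expressed as their quotient.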

[1] = dose: 100.0 mg/kg/injection, schedule: Q04DX003 (ip), vehicle: Klucel (hydroxypropylcellulose) (HPC)
[2] = dose: 200.0 mg/kg/injection, schedule: Q04DX003 (ip), vehicle: Klucel (hydroxypropylcellulose) (HPC)
[3] = dose: 100.0 mg/kg/injection, schedule: Q01DX001 (ip), vehicle: carboxymethylcellulose (CMC)
[4] = dose: 200.0 mg/kg/injection, schedule: Q01DX001 (ip), vehicle: carboxymethylcellulose (CMC)
[5] = dose: 400.0 mg/kg/injection, schedule: Q01DX001 (ip), vehicle: carboxymethylcellulose (CMC)
[6] = dose: 100.0 mg/kg/injection, schedule: Q01DX009 (ip), vehicle: Klucel (hydroxypropylcellulose) (HPC)
[7] = dose: 200.0 mg/kg/injection, schedule: Q01DX009 (ip), vehicle: Klucel (hydroxypropylcellulose) (HPC)
[8] = dose: 400.0 mg/kg/injection, schedule: Q01DX009 (ip), vehicle: Klucel (hydroxypropylcellulose) (HPC)
[9] = dose: 50.0 mg/kg/injection, schedule: Q01DX009 (ip), vehicle: Klucel (hydroxypropylcellulose) (HPC)
[10] = dose: 100.0 mg/kg/injection, schedule: Q04DX003 (ip), vehicle: saline with Tween-80
[11] = dose: 200.0 mg/kg/injection, schedule: Q04DX003 (ip), vehicle: saline with Tween-80
[12] = dose: 400.0 mg/kg/injection, schedule: Q04DX003 (ip), vehicle: saline with Tween-80
[13] = dose: 100.0 mg/kg/injection, schedule: Q01DX001 (ip), vehicle: saline
[14] = dose: 200.0 mg/kg/injection, schedule: Q01DX001 (ip), vehicle: saline
[15] = dose: 400.0 mg/kg/injection, schedule: Q01DX001 (ip), vehicle: saline
[16] = dose: 50.0 mg/kg/injection, schedule: Q01DX001 (ip), vehicle: saline

Measured: T/C

CC(C)OC(=O)c1cc(O)c(O)c(O)c1
inactive: dose: 75.0 mg/kg/injection, schedule: Q01DX001 (ip), vehicle: saline 102 % of control | dose: 150.0 mg/kg/injection, schedule: Q01DX001 (ip), vehicle: saline 94 % of control | dose: 300.0 mg/kg/injection, schedule: Q01DX001 (ip), vehicle: saline 94 % of control

CCCCSP(Cc1ccccc1)SCCCC
inactive: [1] 96 % of control | [2] 94 % of control

COc1ccc2c(c1)-c1c(ccc(OC)c1O)CC(c1ccccc1)[N+](C)(C)CC2 (stereo not given)
inactive: dose: 6.25 mg/kg/injection, schedule: Q01DX001 (ip), vehicle: saline 96 % of control | dose: 12.5 mg/kg/injection, schedule: Q01DX001 (ip), vehicle: saline 96 % of control | dose: 25.0 mg/kg/injection, schedule: Q01DX001 (ip), vehicle: saline 107 % of control

COc1ccc(C2OCC(CCl)O2)cc1 (stereo not given)
inactive: dose: 55.0 mg/kg/injection, schedule: Q01DX Z (ip), vehicle: methylcellulose (MC) 109 % of control | dose: 83.0 mg/kg/injection, schedule: Q01DX Z (ip), vehicle: methylcellulose (MC) 103 % of control | dose: 125.0 mg/kg/injection, schedule: Q01DX Z (ip), vehicle: methylcellulose (MC) 101 % of control

NCCC1CCCCN1 (stereo not given)
inactive: dose: 100.0 mg/kg/injection, schedule: Q04DX003 (ip), vehicle: acetone 108 % of control | dose: 150.0 mg/kg/injection, schedule: Q01DX009 (ip), vehicle: saline 117 % of control | dose: 225.0 mg/kg/injection, schedule: Q01DX009 (ip), vehicle: saline 101 % of control | dose: 335.0 mg/kg/injection, schedule: Q01DX009 (ip), vehicle: saline 110 % of control

N=C(OC1CCCCC1)N1CCCC1
inactive: dose: 22.0 mg/kg/injection, schedule: Q01DX Z (ip), vehicle: saline 98 % of control | dose: 33.0 mg/kg/injection, schedule: Q01DX Z (ip), vehicle: saline 98 % of control | dose: 50.0 mg/kg/injection, schedule: Q01DX Z (ip), vehicle: saline 98 % of control

COc1ccc(CN2CCCN(Cc3ccc(OC)cc3OC)C2c2cc([N+](=O)[O-])ccc2O)c(OC)c1
inactive: dose: 50.0 mg/kg/injection, schedule: Q01DX001 (ip), vehicle: carboxymethylcellulose (CMC) 107 % of control | [3] 98 % of control | [4] 101 % of control | [5] 98 % of control

N#CC(N)=NC1CCC(C2CCC(N)CC2)CC1 (stereo not given)
inactive: [6] 97 % of control | [1] 107 % of control | [7] 97 % of control | [2] 94 % of control | [8] 98 % of control | dose: 400.0 mg/kg/injection, schedule: Q04DX003 (ip), vehicle: Klucel (hydroxypropylcellulose) (HPC) 97 % of control

FC(F)(F)c1ccc(N2CCCCC2)cc1
inactive: dose: 75.0 mg/kg/injection, schedule: Q04DX002 (ip), vehicle: saline 103 % of control | dose: 150.0 mg/kg/injection, schedule: Q04DX002 (ip), vehicle: saline 95 % of control | dose: 300.0 mg/kg/injection, schedule: Q04DX002 (ip), vehicle: saline 95 % of control

O=S(=O)(Nc1ccccc1)c1ccccc1C(O)(c1ccccc1)c1ccccc1
inactive: [3] 106 % of control | [4] 90 % of control | [5] 93 % of control

CC(=O)C(N=Nc1ccccc1)C(C)=O
inactive: dose: 25.0 mg/kg/injection, schedule: Q01DX009 (ip), vehicle: Klucel (hydroxypropylcellulose) (HPC) 94 % of control | [9] 92 % of control | [6] 97 % of control and 102 % of control

O=C(NC(Cc1cnc[nH]1)C(=O)O)OCc1ccccc1 (stereo not given)
inactive: dose: 100.0 mg/kg/injection, schedule: Q01DX009 (ip), vehicle: saline with Tween-80 100 % of control | [10] 100 % of control | dose: 200.0 mg/kg/injection, schedule: Q01DX009 (ip), vehicle: saline with Tween-80 100 % of control | [11] 98 % of control | dose: 400.0 mg/kg/injection, schedule: Q01DX009 (ip), vehicle: saline with Tween-80 96 % of control | [12] 101 % of control

CC(=O)OC1CCC2(C)C(=CCC3C2CCC2(C)C3CC3OC4(CCC(C)CO4)C(C)C32)C1 (stereo not given)
inactive: [6] 98 % of control | [7] 96 % of control | [8] 95 % of control

O=C(O)CS(=O)(=O)c1nc2ccccc2[nH]1
inactive: dose: 100.0 mg/kg/injection, schedule: Q01DX009 (ip), vehicle: carboxymethylcellulose (CMC) 94 % of control | dose: 200.0 mg/kg/injection, schedule: Q01DX009 (ip), vehicle: carboxymethylcellulose (CMC) 91 % of control | dose: 400.0 mg/kg/injection, schedule: Q01DX009 (ip), vehicle: carboxymethylcellulose (CMC) 91 % of control

CCc1oc(N)nc1-c1ccccc1
inactive: [10] 105 % of control | [11] 101 % of control | [12] 97 % of control

CCOC(=O)CCC(NC(=O)OCc1ccccc1)C(=O)O (stereo not given)
inactive: [1] 91 % of control | [2] 89 % of control

OCC(O)COc1ccccc1 (stereo not given)
inactive: [13] 108 % of control | [14] 96 % of control | [15] 96 % of control

O=c1[nH]c(CC(O)C(Cl)(Cl)Cl)nc2ccccc12 (stereo not given)
inactive: [9] 100 % of control | [6] 100 % of control | [7] 103 % of control

O=C(NC1CCCCC1)C(=O)NC1CCCCC1
inactive: [16] 102 % of control | [13] 98 % of control | dose: 100.0 mg/kg/injection, schedule: Q04DX002 (ip), vehicle: Klucel (hydroxypropylcellulose) (HPC) 89 % of control | [14] 98 % of control | dose: 200.0 mg/kg/injection, schedule: Q04DX002 (ip), vehicle: Klucel (hydroxypropylcellulose) (HPC) 95 % of control | [15] 96 % of control | dose: 400.0 mg/kg/injection, schedule: Q04DX002 (ip), vehicle: Klucel (hydroxypropylcellulose) (HPC) 103 % of control

O=C(CCN1CC=C(c2ccccc2)CC1)c1ccc(N2CC=C(c3ccccc3)CC2)cc1
inactive: dose: 75.0 mg/kg/injection, schedule: Q04DX002 (ip), vehicle: saline with Tween-80 100 % of control | dose: 150.0 mg/kg/injection, schedule: Q04DX002 (ip), vehicle: saline with Tween-80 100 % of control | dose: 300.0 mg/kg/injection, schedule: Q04DX002 (ip), vehicle: saline with Tween-80 107 % of control

Clc1[nH]nc2ccccc12
inactive: dose: 25.0 mg/kg/injection, schedule: Q01DX009 (ip), vehicle: saline sonified 101 % of control | dose: 50.0 mg/kg/injection, schedule: Q01DX009 (ip), vehicle: saline sonified 93 % of control | dose: 100.0 mg/kg/injection, schedule: Q01DX001 (ip), vehicle: saline sonified 91 % of control | dose: 100.0 mg/kg/injection, schedule: Q01DX009 (ip), vehicle: saline sonified 97 % of control

CCOc1ccccc1NC(=O)c1c(Br)c(Br)c(Br)c(Br)c1C(=O)O
inactive: [6] 102 % of control | [7] 102 % of control

CCSC(SCC)C(NC(C)=O)C1OC(C)(C)OC1C(O)CO (stereo not given)
inactive: [16] 97 % of control | [13] 103 % of control | [14] 103 % of control | [15] 103 % of control
